This passage reports TGI and GI50 results from PubChem BioAssay (NCI).

What all share (test): DTP human tumour cell line panel, 48 h
Assay [1] deals with LXFL 529 NSCLC.
Assay [2] concerns HOP-18 NSCLC.
Assay [3] concerns M19-MEL melanoma.
Assay [4] has as its system DMS 114 small cell lung.
Assay [5] deals with SNB-78 CNS.
For assay [6], the system named is KM20L2 colon.
In assay [7] the test system is XF 498 CNS.
In assay [8] the test system is MDA-N.
Assay [9] relates to RXF-631 renal.

SMILES strings stand for the structures. Several values for one entry are separate records, joined by “and”; a condition that tells them apart may be missing. Identical values can stand only once.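 Compound exposure: 48 hours, 5 concentrations, 96-well plates. GI50 is the concentration that inhibits growth by half. TGI is the concentration that stops growth completely.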

With `C=CCC12CC(=O)CCC1c1ccc(OC)cc1C2=O` (stereo not drawn), the TGI in assay [1], in assay [2], in assay [3], in assay [4], in assay [5] and in assay [6] was > 100 µM throughout.
Take `CC(=O)OCC1OC(n2c(=O)[nH]c(=O)c3n[nH]nc32)C(OC(C)=O)C(OC(C)=O)C1OC(C)=O` (stereo not drawn): the TGI in assay [1], in assay [2], in assay [3], in assay [4], in [7] and in [6] was > 100 µM in each case.
In the case of `Brc1cc(C2OCCCO2)ccc1OCc1ccccc1`, the TGI in assay [1], in [3], in [4], in [5] and in [7] was > 100 µM throughout.
Consider `O=c1cc[nH]cc1-c1c[nH]ccc1=O`, for which the TGI in [1], in [2], in assay [3], in [4] and in assay [5] was > 100 µM throughout.
Take `COc1cc(Cl)c(CC(=O)c2c[nH]c3ccccc23)cc1OC`: in assay [8], the TGI – broadly, the concentration at which net growth stops – was > 100 µM.
The same measure, in the same setting: under `CCCCCCCCCCCNC=O` stands > 100 µM.
For `CCOC(=O)c1sc2c(C(=O)OCC)n3cc(C)cc(C)c3c2c1O`, the TGI in assay [1], in assay [3], in assay [4], in assay [5] and in assay [6] was > 100 µM throughout.
Consider `COc1cc(/C=C/C(=O)CC(=O)/C=C/c2cc(OC)c(O)c(OC)c2)cc(OC)c1O`, for which, in assay [8], the GI50 – broadly, the concentration that inhibits growth by half – was 16.9 µM; the TGI is 11.2 µM and > 100 µM.
For the molecule `COC(=O)CC1(O)C=CC(=O)C=C1`, the TGI in [8] was found to be 20.9 µM.
As to `COC(=O)C(=O)C(C(=O)C(=O)Nc1ccccc1[N+](=O)[O-])c1nc2ccc([N+](=O)[O-])cc2[nH]c1=O` (stereo not drawn), the TGI in assay [1], in [9], in assay [2], in [3], in assay [4] and in [5] was > 100 µM each time. The TGI in [6] was > 100 µM.
As for `CCCC(O)c1cn(-c2cccc(S(=O)(=O)O)c2)nn1` (stereo not drawn), the TGI in [1], in assay [9], in assay [2], in [3], in [4] and in [5] was > 100 µM in each case. Further, the TGI in [7] and in [6] was > 100 µM each time.
Take `COc1ccc(-c2cc3ccccc3[nH]c2=O)cc1OC`: the TGI in assay [1], in [2], in [3], in [5], in assay [7] and in [6] was > 100 µM in each case.
Take `CS(=O)(=O)c1ccc(COP(N)(=O)N(CCCl)CCCl)cc1` (stereo not drawn): the total growth inhibition concentration (TGI) in assay [1], in [3], in [4], in assay [5], in [7] and in assay [6] was > 100 µM in each case.
Turning to `C1CSC[C@H]2COC[C@@H](CSCCS1)S2`, the total growth inhibition concentration (TGI) in [8] is > 100 µM.
Turning to `Cc1cc(=O)[nH]c(NNC(C#N)c2ccccc2O)n1` (stereo not drawn), the TGI in assay [2] was > 100 µM; in [3], > 100 µM; in [4], 60.9 µM; in assay [6] it was > 100 µM.
As for `C=C(C)[C@@H]1CCc2c(O)c(O)c(=O)cc(C)c2C1`, in [8], the TGI was > 100 µM.
Take `CC(C)N(C(=O)C12C3C4C5(C(=O)O)C(C1C35I)C42C(=O)O)C(C)C` (stereo not drawn): the total growth inhibition concentration (TGI) in assay [1], in assay [9], in assay [3], in assay [4], in [5] and in assay [6] was > 100 µM throughout.
`COc1ccc(NC(=O)CC(=O)N/N=C(\C)c2cc3ccccc3oc2=O)cc1`: the TGI in assay [2], in [3], in [4] and in [6] was > 100 µM each time.
Regarding `CN1CCN=C1c1nnn(-c2ccc([N+](=O)[O-])cc2)c1-c1ccccc1`, the TGI in [1], in [2], in assay [3], in assay [4], in assay [5] and in assay [7] was > 100 µM each time. Further, the TGI in assay [6] was > 100 µM.
Turning to `CCC(C)(O)c1cn(-c2ccc(Cl)cc2)nn1` (stereo not drawn), the TGI in assay [1], in [2], in [3], in assay [5] and in assay [6] was > 100 µM throughout.
Consider `O=C(O)c1c2c(cc3c(=O)c4ccccc4[nH]c13)CCCC2`, for which the TGI in assay [1], in [9], in [2], in assay [3], in assay [5] and in assay [7] was > 100 µM throughout. In assay [6], the TGI was > 100 µM.
In the case of `O=C1C(Cl)=C(Cl)C(=O)N1c1ccc(Cl)c(Cl)c1Cl`, the TGI in [1] is 88 µM; in assay [9], > 100 µM; in assay [2] it was > 100 µM; in assay [3], > 100 µM; in assay [4], > 100 µM; in assay [5] it was > 100 µM. The TGI in assay [6] was > 100 µM.
In the case of `COc1c(OC)c(OC)c2c(=O)cc(-c3ccc(OC(C)C)cc3)oc2c1OC`, in assay [8], the total growth inhibition concentration (TGI) was > 53.8 µM.
With `COC(=O)/C(C#N)=C1\CCC(OC)N1C` (stereo not drawn), the TGI in [1], in assay [2], in assay [3], in [4], in assay [5] and in assay [7] was > 100 µM in each case. Besides, the TGI in [6] was > 100 µM.
Consider `Cc1ccc(N2C(=O)/C(=C/c3ccc(N(CCC#N)CCC#N)cc3)N=C2COc2ccc(Cl)cc2Cl)cc1`, for which the TGI in assay [1], in assay [9], in assay [2], in assay [4], in [5] and in [7] was > 100 µM each time. The TGI in assay [6] is > 100 µM.
As for `COc1cc2c(cc1OC)C(C(CBr)CBr)N(C1CCCC1)CC2` (stereo not drawn), the TGI in assay [1], in [3] and in assay [7] was > 100 µM each time.
As for `CC(/C=C/C(=O)c1sc(C(N)=S)nc1C)=C\c1ccccc1`, the TGI in assay [1] is > 100 µM; in [9], > 100 µM; in [2], > 100 µM; in [3], > 100 µM; in [4], 35 µM; in assay [5] it was > 100 µM. Also, the TGI in [7] and in assay [6] was > 100 µM in each case.
For the molecule `CN(C)C=N[C@@H](C(=O)O)c1ccccc1`, the TGI in assay [8] was > 100 µM.
Still for that read-out and setting: the same measure for `CC(C)C1(NC(=O)C2CC3c4cccc5[nH]cc(c45)CC3N(C)C2)OC2(O)C3CCCN3C(=O)C(Cc3ccccc3)N2C1=O` (stereo not drawn): > 100 µM.
For `COc1cc(Cc2c(C)cc(OC)c3[nH]c4ccccc4c23)cc2c1[nH]c1ccccc12`, the GI50 in [1] was 4.13 µM; in assay [3] it was 9.67 µM; in assay [7] it was 6.03 µM; in [6] it was 5.28 µM. Also, the concentration for total growth inhibition (TGI) was 22.4 µM in [1]; > 25 µM in assay [3]; > 25 µM in [4]; 17 µM in [5]; > 25 µM in [7]; 10.8 µM in assay [6].
For `Cc1ccccc1-n1c(=S)[nH]c2c(sc(=O)n2-c2ccccc2C)c1=O`, the TGI in [1], in assay [9], in [2], in assay [3], in assay [4] and in assay [5] was > 100 µM each time. For the same molecule, the TGI in [6] is > 100 µM.
As for `COC(=O)c1onc(C2OC(C)(C)OC2C(O)COC(c2ccccc2)(c2ccccc2)c2ccccc2)c1C(=O)OC` (stereo not drawn), the TGI in assay [8] was > 100 µM.
For the molecule `Cc1ccc2oc(=O)c3c(O)c4cccc(OC5OC(C)C6O[C@@H](c7ccccc7)OC6C5OC5OC(C)C(O)C(O)C5O)c4c4oc(=O)c1c2c34` (stereo partly drawn), the TGI came out at 6.5 µM in assay [1]; 4.4 µM in [9]; 19.4 µM in assay [2]; 3.43 µM in assay [3]; 3.16 µM in assay [4]; 5.23 µM in assay [5]. Also, the TGI in [7] was 2.05 µM; in assay [8], 1.72 µM; in [6], 4.08 µM.
With `O=C1C=CC(=O)c2c1ccc1c3ccccc3n(Cc3ccccc3)c21`, in assay [8], the total growth inhibition concentration (TGI) worked out at 54.4 µM.
Regarding `O=C1OC(=O)C23CSCC12C1C=CC3O1` (stereo not drawn), the TGI in assay [1], in assay [3], in assay [4], in assay [7] and in [6] was > 100 µM in each case.
As to `COc1ccc(N2C(=O)[C@@H](N=[N+]=[N-])[C@@H]2[C@H]2COC(C)(C)O2)cc1`, the TGI in [1], in assay [2], in assay [3], in assay [4], in assay [5] and in assay [6] was > 100 µM in each case.
`CCC1CCCCN1CC(C(C)=O)C(c1ccccc1)c1c(O)c2ccccc2oc1=O` (stereo not drawn): the TGI in assay [9], in assay [3], in [4], in assay [5], in [7] and in assay [6] was > 100 µM in each case.
Take `CC1=C(CO)C(=O)O[C@@H]([C@@H](C)[C@H]2CC[C@H]3[C@@H]4C[C@H]5O[C@]56[C@@H](O)C=CC(=O)[C@]6(C)[C@H]4CC[C@]23C)C1`: the TGI in [1] was 1.26 µM; in [3] it was 3.01 µM; in [4], 1.95 µM; in [7], 2.82 µM; in assay [6] it was 1.47 µM.
Regarding `O=[N+]([O-])c1cc(/C=N\NS(=O)(=O)c2ccc(Cl)cc2)c(O)c([N+](=O)[O-])c1`, the TGI in [1], in assay [9], in [2], in assay [3], in [4] and in assay [5] was > 100 µM each time. In [6], the TGI stood at 74.1 µM.
In the case of `CCOC(=O)[C@@]12C(C)=CC(=O)O[C@]1(C)C1C(=O)NC(=O)C12` (stereo partly drawn), the TGI in [1], in assay [9], in assay [2], in assay [4], in [5] and in assay [6] was > 100 µM each time.
As for `O=C(c1ccccc1)c1nnn(Cc2ccccc2Cn2nnc(C(=O)c3ccccc3)c2C(=O)c2ccccc2)c1C(=O)c1ccccc1`, the TGI in [1], in assay [2], in [3], in [4], in assay [5] and in assay [6] was > 100 µM in each case.
